Data from patent US4876284A, “1-alkyl-2-aminotetralin derivatives” (Per Arvid Emil Carlsson, priority 1981, dated 1989).

How the values were obtained:
[1] = test system: central DA-receptor (pre- and/or postsynaptic); assay: Rat-brain in-vivo tyrosine hydroxylation: Dopa accumulation after NSD 1015 in reserpine-pretreated rats; settings: reserpine-pretreated rats
Procedure: The compounds under evaluation were tested biochemically for central DA-receptor (pre- and/or postsynaptic) stimulating activity. The concept of this biochemical screening method is that a DA-receptor agonist will stimulate the receptor and through regulatory feedback systems effect a decline in tyrosine hydroxylase activity and thus a subsequent reduction in the synthesis rate for DA in the presynaptic neuron. Dopa formation, as determined after in-vivo inhibition of the aromatic L-amino acid decarboxylase with NSD 1015 (3-hydroxybenzyl-hydrazine hydrochloride), is taken as an indirect measure of DA synthesis rate.
Rats (150-300 g) pretreated with reserpine were given the compounds under evaluation. Gross behavioural observations (changes in motility, stereotypies etc.) were made in order to evaluate possible postsynaptic dopamine receptor activity. subsequent administration of NSD 1015, decapitation, brain dissection [corpora striata, limbic fore-brain and rest of the hemispheral parts (cortex)]homogenization, centrifugation, ion-exchange chromatography and spectro-fluorimetric measurements (all as described in detail by Wikstrom et al., in J. Med. Chem. 21, 864-867, 1978 and references cited therein), gave the actual Dopa levels.
Several doses (n=4-6) were tested in order to obtain dose-response curves for each compound and brain area. The dose of a compound producing a half-maximal decrease in the Dopa level in the rat brain part was then estimated. These values (ED50) are presented in Table I. (Simultaneous determination of the 5-HTP levels was also performed utilizing the same paradigm.)
^b Rats pretreated with reserpine (10 mg/kg i.p.; 18 h) were given th
compounds under evaluation. Fortyfive minutes later they were injected
with NSD 1015 (100 mg/kg i.p.) and after a further 30 min they were
decapitated, the brains rapidly dissected and taken for determination of
the Dopa and 5HTP levels in different areas of the brain. The dose of a
compound producing a halfmaximal decrease (ED50) in the Dopa level i
the rat brain part was then estimated from doseresponse curves comprising
4-6 dose levels. (For further details see the text and references).

[2] = test system: postsynaptic DA receptors; assay: Antagonism of the reserpine plus α-methyl-para-tyrosine-induced immobility (neuroleptic syndrome) in rats; motor activity; settings: for Motor activity: reserpine 10 mg/kg + α-methyl-para-tyrosine 250 mg/kg i.p., means ± s.e.m.
DA autoreceptors = assay: Spontaneous locomotor activity in non-pretreated rats; type: in vivo, rat; settings: non-pretreated rats
Procedure: Untreated animals exposed to a new environment display an initial high motor activity which then gradually declines over a period of time. Administration of DA-receptor agonists (e.g. apomorphine) in doses where preferential autoreceptor stimulation is likely to occur, causes a depression of the spontaneous motility mentioned above, considered to be due to the DA autoreceptor-medicated attenuation of central DA transmission.
Rats (150-300 g) were injected subcutaneously with compound 2,5-OH-DPAT or apomorphine and after 5 minutes they were individually placed in motility boxes ("M/P 40 Fc Electronic Motility Meter". Motron Products, Stockholm) and the motor activity (0-30 min) was quantified. […] These findings are in congruence with the results obtained with the selective DA-autoreceptor agonist 3-PPP [S. Hjorth t al., Life Sciences, 28, 1225 (1981)] but in sharp contrast to the results obtained with 5-OH-DPAT and apomorphine (Table III).
Non-pretreated rats were given compound -2 (0.0625-16.0 mg/kg),
5OH--2-(di-n-propylamino) tetralin (5OH--DPAT; 0.0125-0.05 mg/kg,
apomorphine (0.1-1.0 mg/kg) or saline subcutaneously. Five minutes later
they were placed individually into motility meters and the locomotor

[3] = test system: central DA-receptor (pre- and/or postsynaptic); settings: reserpine-pretreated rats, s.c., cited from earlier work
[4] = reserpine and α-methyl-para-tyrosine pretreated rats

Row | Structure (SMILES) | Dopa-accumulation; ED50, Limbic (class symbol) ([1]; limbic forebrain, s.c.) | biochemical activity (Dopa accumulation), in words ([1]; inactive even at 45 μmol/kg) | Dopa-accumulation; ED50, Striatum (class symbol) ([1]; striatum, s.c.) | Dopa-accumulation; ED50, Limbic ([1]; limbic forebrain, half-maximal decrease in Dopa level, s.c.) | Dopa-accumulation; ED50, Striatum ([1]; striatum, half-maximal decrease in Dopa level, s.c.) | Motor activity ([2]; 10 mg/kg s.c.) | antagonism of the reserpine-induced syndrome / behaviour elicited [2, 4] | Locomotor activity (DA autoreceptors; 0.0125 mg/kg s.c.) | Locomotor activity (DA autoreceptors; 0.05 mg/kg s.c.) | effect on locomotor activity, in words (DA autoreceptors; s.c.) | Motor activity ([2]; 0.75 mg/kg s.c.) | motor response / postsynaptic DA-receptor stimulatory effects ([2]; comparative study, Table II, s.c.) | postsynaptic DA-receptor stimulation [2, 4] | Dopa-accumulation; ED50, Limbic (taken from Hacksell et al., J. Med. Chem. 22, 1469 (1979)) ([3]; limbic forebrain) | Dopa-accumulation; ED50, Striatum (taken from Hacksell et al., J. Med. Chem. 22, 1469 (1979)) ([3]; striatum)
1 | CCCN(CCC)C1CCc2c(O)cccc2C1(C)C (stereo not shown) [1,1-di-CH35-OHDPAT, 1,1di-CH35-OH2-(di-n-propylamino) tetralin] | I (Inactive. ED50 > 45 μmol/kg.) | completely inactive | I (Inactive. ED50 > 45 μmol/kg.) | – | – | – | – | – | – | – | – | – | – | – | –
2 | CCCN1CCCC(c2cccc(O)c2)C1 (stereo not shown) [Compound 3-PPP, 3-(3-hydroxyphenyl)-N-n-propylpiperidine] | – | – | – | 3.6 μmol/kg s.c. | 3.6 μmol/kg s.c. | 51 ± 19 counts 0-60 min | inability of compound 2 to antagonize the reserpine-induced syndrome is shared by the selective Da-autoreceptor agonist 3-PPP | – | – | – | – | – | – | – | –
3 | CCCN(CCC)C1CCc2c(O)cccc2C1 (stereo not shown) [Compound 5-OHDPAT, 5-hydroxy-2-(di-n-propylamino)tetralin] | – | – | – | – | – | – | pronounced stereotyped and hyperactive behaviour | 84 ± 11 counts 0.30 min | 380 ± 24 counts 0.30 min | lower doses significantly suppressing and higher dosess significantly stimulating the rat locomotor activity | 620 ± 20 counts 0-60 min | strong central postsynaptic DA-receptor stimulatory effects | efficient postsynaptic DA-receptor stimulants | 0.111 μmol/kg s.c. | 0.009 μmol/kg s.c.
